According to patent US20250241876A1, “ANTI-TUMOR COMPOUNDS AND METHODS OF USE THEREOF AND SYNTHESIS THEREOF” (Atossa Therapeutics, Inc., priority 2023, published 2025):

Assays:
Assay type in all cases: cell-based
[1] = tested on: ERα+ breast cancer cell lines in 3D cultures; assay: 3D culture cancer cell proliferation; conditions: ~1 μM
Source text: (§1) Approximately 80% of breast cancers express estrogen receptor alpha (ERα, ESR1) which drives cancer progression. […] (Z)-Endoxifen (ENDX), an active metabolite of tamoxifen, is a potent orally bioavailable selective estrogen receptor modulator with a favorable safety profile now under development for breast health applications. Its synthesis yields endoxifen-related byproduct new chemical entities (NCE), including Compound 7b, Compound 7a, Compound 5b and Compound 5a. This study compared the anti-estrogenic effects of these compounds to (Z)-endoxifen in ERα+ breast cancer cell lines (MCF7, T47D, UCD12), including those with ESR1 mutations (Y537S, D538G) linked to endocrine resistance.

MCF7 cells [2] = assay: 2D culture proliferation, MCF7; conditions: 2D cultures, estrogen-containing media
Source text: as §1

T47D cells [3] = assay: Apoptosis induction, T47D, Example 29; conditions: for apoptosis induction in T47D cells: p<0.0001 vs. vehicle
[4] = tested on: ERα+ breast cancer cell lines; assay: Cell cycle arrest, Example 29
Source text: as §1

[5] = tested on: ERα+ breast cancer cell lines (MCF7, T47D, UCD12), including those with ESR1 mutations (Y537S, D538G); assay: 2D culture proliferation, all lines, Example 29; conditions: 2D cultures, estrogen-containing media, 0.02-5 μM, across all lines; p<0.0001 vs. vehicle
Source text: as §1

[6] = tested on: T47D cells with Y537S or D538G mutations; assay: Proliferation, T47D ESR1 mutants
Source text: as §1

[7] = tested on: ERα+ breast cancer cell lines; assay: RT-qPCR analysis; conditions: 0.1 μM
UCD12 cells = assay: 2D culture proliferation, UCD12; conditions: 2D cultures, estrogen-containing media
Source text: as §1

T47D cells [8] = assay: Scratch-wound cell migration assay, Example 24, T47D; conditions: highest dose examined (5 μM)
Procedure: (§2) This example covers cell migration assays with endoxifen and endoxifen-related compounds. Scratch-wound density and width measurements were tracked for 70 to 100 hours in MCF7 and T47D samples following treatment with a compound. […] FIG. 75 is a series of images of masked and unmasked wounds from the cell migration assays, with the rightmost figure showing invadopodia in cells within wound sites. In FIGS. 76-85, subfigure A is a plot of relative wound density, subfigure B is a plot of wound width, and subfigure C is a series of representative wound images from Day 3 or 4 of treatment. FIGS. 76-85 correspond to endoxifen treatment of MCF7 samples (FIG. 76), endoxifen treatment of T47D samples (FIG. 77), Compound 5b treatment of MCF7 samples (FIG. 78), Compound 5b treatment of T47D samples (FIG. 79), Compound 5a treatment of MCF7 samples (FIG. 80), Compound 5a treatment of T47D samples (FIG. 81), Compound 7b treatment of MCF7 samples (FIG. 82), Compound 7b treatment of T47D samples (FIG. 83), Compound 7a treatment of MCF7 samples (FIG. 84), and Compound 7a treatment of T47D samples (FIG. 85), respectively. […]
(§3) Migration inhibition was primarily detected at the highest tested dose (5 μM), which may be due to the fact that MCF7 and T47D cells are not migratory in nature under normal conditions. […]

MCF7 cells [9] = assay: Scratch-wound cell migration assay, Example 24, MCF7; conditions: highest dose examined (5 μM)
Procedure: as §2, §3

MCF7 cells [10] = assay: Migration and invasion inhibition assays, MCF7; conditions: p<0.0001
T47D cancer cells = assay: Cell migration (scratch-wound) assay, Example 20; conditions: high doses (FIGS. 58, 60, 62); 0 to 100 hours
Procedure: This example covers cell migration assays with endoxifen and multiple endoxifen-related compounds on T47D cancer cells. FIGS. 52A, 53A, 54A, 55A, and 56A are plots of relative wound density following treatment with vehicle or 0.02 to 6 μM endoxifen (FIG. 52A), Compound 5b (FIG. 53A), Compound 5a (FIG. 54A), Compound 7a (FIG. 55A), and Compound 7b (FIG. 56A) as a function of time (0 to 100 hours). FIGS. 52B, 53B, 54B, 55B, and 56B are plots of wound width following treatment with vehicle or 0.02 to 6 μM endoxifen (FIG. 52B), Compound 5b (FIG. 53B), Compound 5a (FIG. 54B), Compound 7a (FIG. 55B), and Compound 7b (FIG. 56B) as a function of time (0 to 100 hours). FIGS. 52C, 53C, 54C, 55C, and 56C are series of plots of individual replicates of relative wound density and wound width for endoxifen, Compound 5b, Compound 5a, Compound 7a, and Compound 7b, respectively. FIG. 57 is a plot of relative wound density over time (0 to 100 hours) for a wound treated with vehicle (DMSO), 5 μM endoxifen, 5 μM Compound 5b, and 5 μM Compound 5a. FIG. 58 is a plot of relative wound density over time (0 to 100 hours) for a wound treated with vehicle (DMSO), 5 μM endoxifen, 5 μM Compound 7a, and 5 μM Compound 7b. FIG. 59 is a plot of relative wound density over time (0 to 100 hours) for a wound treated with vehicle (DMSO), 2.5 μM endoxifen, 2.5 μM Compound 5b, and 2.5 μM Compound 5a. […]

T47D cells [11] = assay: Anti-invasion (scratch wound) assay, Example 25; conditions: 1.25, 2.5, 5 μM
Source text: This example covers anti-invasion, apoptosis, and toxicity assays for various endoxifen-related compounds against multiple cancer cell lines. FIGS. 90A-F are plots that summarize results of proliferation assays for multiple cancer cell lines (MCF7, T47D, UCD4, and UCD12) in the presence of varying doses of endoxifen and multiple endoxifen-related compounds. FIGS. 91A-C are plots that summarize results of wound confluence measurements from scratch wound assays on T47D cells in the presence of 1.25 μM (FIG. 91A), 2.5 μM (FIG. 91B), and 5 μM (FIG. 91C) endoxifen and multiple endoxifen-related compounds. FIGS. 92A-C are plots that summarize results of wound density measurements from scratch wound assays on T47D cells in the presence of 1.25 μM (FIG. 92A), 2.5 μM (FIG. 92B), and 5 μM (FIG. 92C) endoxifen and multiple endoxifen-related compounds. FIGS. 93A-C are plots that summarize results of wound confluence measurements from scratch wound assays on MCF7 cells in the presence of 1.25 μM (FIG. 93A), 2.5 μM (FIG. 93B), and 5 μM (FIG. 93C) endoxifen and multiple endoxifen-related compounds. FIGS. 94A-C are plots that summarize results of wound density measurements from scratch wound assays on MCF7 cells in the presence of 1.25 μM (FIG. 94A), 2.5 μM (FIG. 94B), and 5 μM (FIG. 94C) endoxifen and multiple endoxifen-related compounds. […]

T47D cells [12] = assay: Migration and invasion inhibition assays, T47D; conditions: p<0.0001
[13] = tested on: estrogen-induced and ERα-mediated activation of an estrogen response element (ERE) luciferase reporter construct in ER+ T47D cells; assay: Luciferase (ERE reporter) agonist/antagonist assay, ER+ cells; conditions: CSS+E2 media
T47D cells [14] = assay: 2D culture proliferation, T47D; conditions: estrogen-deficient conditions
Source text: as §1

Row | SMILES | potency in 3D cultures, ranking [1] | anti-proliferative effect, ranking (MCF7 cells [2]) | apoptosis induction in T47D cells, ranking (T47D cells [3]) | apoptosis induction in T47D cells (T47D cells [3]) | G1 cell cycle arrest [4] | anti-proliferative effect, inhibition [5] | potency, ranking [6] | RT-qPCR analysis, potency ranking [7] | anti-proliferative effect, ranking (UCD12 cells) | potency at inhibiting the migration and proliferation compared with endoxifen (T47D cells [8]) | potency at inhibiting the migration and proliferation compared with endoxifen (MCF7 cells [9]) | migration and invasion inhibition compared with (Z)-endoxifen (MCF7 cells [10]) | potency at inhibiting the migration and proliferation of T47D cells compared with endoxifen (T47D cancer cells) | potency at inhibiting the invasion of T47D cells compared with endoxifen (T47D cells [11]) | migration and invasion inhibition compared with (Z)-endoxifen (T47D cells [12]) | anti-proliferative effects in ER+ cells compared with endoxifen [13] | anti-proliferative activity compared with (Z)-endoxifen (T47D cells [14])
1 | CC/C(=C(\c1ccc(O)cc1)c1ccc(OCCNC)cc1)c1ccccc1 [(Z)-endoxifen, (Z)-Endoxifen, reference compound] | comparable, superior potency | strongest effects | superior activity | significantly induced | most effective | 20-90% | most potent | most potent | strongest effects | – | – | – | – | – | – | – | –
2 | CC/C(=C(/c1ccc(O)cc1)c1ccc(OCCN(C)C(C)=O)cc1)c1ccccc1 [Compound 7b] | – | – | – | significantly induced | – | – | – | – | – | more potent than endoxifen | more potent than endoxifen | consistently outperformed (Z)-endoxifen | greater potency than endoxifen | more potent than endoxifen | consistently outperformed (Z)-endoxifen | closely resemble that of endoxifen | more effective
